Target: Tyrosine-protein kinase JAK1 (Homo sapiens, UniProt P23458)
Assay: In vitro JAK Kinase Assay: The catalytic domains of human JAK1 (a.a. 837-1142), Jak2 (a.a. 828-1132) and Jak3 (a.a. 781-1124) with an N-terminal His tag were expressed using baculovirus in insect cells and purified. The catalytic activity of JAK1, JAK2 or JAK3 was assayed by measuring the phosphorylation of a biotinylated peptide. The phosphorylated peptide was detected by homogenous time resolved fluorescence (HTRF). […] Reactions were carried out at room temperature for 1 hr and then stopped with 20 μL 45 mM EDTA, 300 nM SA-APC, 6 nM Eu-Py20 in assay buffer (Perkin Elmer, Boston, Mass.). Binding to the Europium labeled antibody took place for 40 minutes and HTRF signal was measured on a Fusion plate reader (Perkin Elmer, Boston, Mass.)

Tyrosine-protein kinase JAK1, sequence (P23458 whole entry, the tested form may be a part): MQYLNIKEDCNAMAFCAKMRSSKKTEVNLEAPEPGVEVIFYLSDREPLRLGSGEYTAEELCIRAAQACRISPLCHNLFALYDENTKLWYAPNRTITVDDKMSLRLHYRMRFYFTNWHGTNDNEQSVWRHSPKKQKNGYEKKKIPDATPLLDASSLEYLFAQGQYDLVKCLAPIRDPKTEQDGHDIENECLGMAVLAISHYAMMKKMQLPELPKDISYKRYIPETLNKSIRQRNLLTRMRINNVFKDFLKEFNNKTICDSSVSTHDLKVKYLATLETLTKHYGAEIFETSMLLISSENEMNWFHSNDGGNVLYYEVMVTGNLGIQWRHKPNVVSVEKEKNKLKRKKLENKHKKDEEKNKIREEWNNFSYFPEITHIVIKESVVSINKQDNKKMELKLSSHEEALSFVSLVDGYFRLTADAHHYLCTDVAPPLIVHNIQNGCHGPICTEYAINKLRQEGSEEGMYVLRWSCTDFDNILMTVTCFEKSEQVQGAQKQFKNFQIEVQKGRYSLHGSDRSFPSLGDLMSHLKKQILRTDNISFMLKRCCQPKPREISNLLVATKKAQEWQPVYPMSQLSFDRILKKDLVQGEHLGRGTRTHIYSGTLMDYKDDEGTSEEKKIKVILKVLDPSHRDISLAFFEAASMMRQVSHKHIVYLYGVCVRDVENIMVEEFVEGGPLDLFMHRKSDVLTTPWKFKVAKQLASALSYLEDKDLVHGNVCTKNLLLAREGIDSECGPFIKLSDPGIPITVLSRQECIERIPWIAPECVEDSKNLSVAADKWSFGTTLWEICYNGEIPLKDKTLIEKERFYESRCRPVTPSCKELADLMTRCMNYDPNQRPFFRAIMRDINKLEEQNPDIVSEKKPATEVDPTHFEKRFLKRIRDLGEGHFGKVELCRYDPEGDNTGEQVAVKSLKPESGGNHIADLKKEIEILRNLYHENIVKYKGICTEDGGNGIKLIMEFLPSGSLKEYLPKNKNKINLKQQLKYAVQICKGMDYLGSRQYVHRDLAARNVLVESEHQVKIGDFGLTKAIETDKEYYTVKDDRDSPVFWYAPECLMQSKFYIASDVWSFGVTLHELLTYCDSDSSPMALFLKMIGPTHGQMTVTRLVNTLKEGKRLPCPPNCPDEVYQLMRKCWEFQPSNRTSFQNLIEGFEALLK

Compound: N#CCC1(n2cc(-c3ncnc4[nH]ccc34)cn2)CN(C2CCN(C(=O)OCC3CCCCC3)CC2)C1
- IC50: < 5 nM

— ChEMBL document CHEMBL5727777, “Piperidin-4-yl azetidine derivatives as JAK1 inhibitors” (2020)
